# Measurements: patent publication US20040110802A1, “Antibacterial benzoic acid derivatives” (priority 2002, published 2004)
# Test system: SAUR 9218
# Test: MIC Test Method, standard agar dilution
# Assay type: cell-based
# Settings: agar dilution, Mueller Hinton agar, incubated overnight at 35° C.; lowest concentration that inhibits visible growth; read-out: SAUR 9218 MIC
# Experimental: The in vitro MiCs of test compounds were determined by a standard agar dilution method. A stock drug solution of each analog was prepared in the preferred solvent, usually DMSO:H2O (1:3). Serial 2-fold dilutions of each sample are made using 1.0 ml aliquots of sterile distil]ed water. To each 1.0 ml aliquot of drug was added 9 ml of molten Mueller Hinton agar medium. The drug-supplemented agar was mixed, poured into 15×100 mm petri dishes, and allowed to solidify and dry prior to inoculation.
# Vials of each of the test organisms are maintained frozen in the vapor phase of a liquid nitrogen freezer. Test cultures are grown overnight at 35° C. on the medium appropriate for the organism. Colonies are harvested with a sterile swab, and cell suspensions are prepared in Trypticase Soy broth (TSB) to equal the turbidity of a 0.5 McFamland standard. A 1:20 dilution of each suspension was made in TSB. The plates containing the drug supplemented agar are inoculated with a 0.001 ml drop of the cell suspension using a Steers replicator, yielding approximately 10^4 to 10^5 cells per spot. The plates are incubated overnight at 35° C.
# Following incubation the Minimum Inhibitory Concentration (MIC μg/ml), the lowest concentration of drug that inhibits visible growth of the organism, was read and recorded.
row,SMILES,MIC
1,N#Cc1ccc(NC(=O)c2cc3cccc(NC(=O)CCCc4ccccc4)c3[nH]2)c(C(=O)O)c1,0.5 µg/mL
2,CCC(CC)Sc1ccc(C(=O)Nc2ccc(C#N)cc2C(=O)O)cn1,0.25 µg/mL
3,CCCSc1ccc(C(=O)Nc2ccc(C#N)cc2C(=O)O)cn1.Cl,0.5 µg/mL
4,CCCCCCCCSc1cnc(C(=O)Nc2ccc(C#N)cc2C(=O)O)cn1,0.5 µg/mL
5,N#Cc1ccc(NC(=O)c2cc(-c3ccccc3Oc3ccccc3)on2)c(C(=O)O)c1,0.03 µg/mL
6,COc1cccc2cc(C(=O)Nc3ccc(Br)cc3C(=O)O)oc12,32 µg/mL
7,CCCCN(CCCC)CCCNS(=O)(=O)c1cc(C(=O)Nc2ccc(Br)cc2C(=O)O)cs1,> 128 µg/mL
8,CC(=O)Nc1ccccc1-c1ccc2onc(C(=O)Nc3ccc(C#N)cc3C(=O)O)c2c1,0.5 µg/mL
9,Cc1sc(C(=O)Nc2ccc(C#N)cc2C(=O)O)cc1S(=O)(=O)N(C)C1CCCCC1,8 µg/mL
10,COCOCC(OCOC)C(Cc1cnc(C(=O)Nc2ccc(Br)cc2C(=O)O)cn1)OC (stereo not shown),> 128 µg/mL
11,N#Cc1ccc(NC(=O)c2cc(CO)on2)c(C(=O)O)c1,8 µg/mL
12,COc1ccc(-c2cnc(C(=O)Nc3ccc(C#N)cc3C(=O)O)cn2)cn1,> 128 µg/mL
13,CCCCCCCSc1ccc(C(=O)Nc2ccc(Br)cc2C(=O)O)nn1,0.06 µg/mL
14,N#Cc1ccc(NC(=O)c2nsc(Cl)c2Cl)c(C(=O)O)c1,4 µg/mL
15,Cc1noc(C)c1-c1cncc(C(=O)Nc2ccc(C#N)cc2C(=O)O)c1,16 µg/mL
16,COc1ccccc1-c1cnc(C(=O)Nc2ccc(C#N)cc2C(=O)O)o1,1 µg/mL
17,N#Cc1ccc(NC(=O)c2cc(-c3ccccc3OCC3CCC3)on2)c(C(=O)O)c1,0.125 µg/mL
18,O=C(Nc1ccc(Cl)cc1C(=O)O)c1cc(CCCc2ccccc2)on1,0.5 µg/mL
19,CC(C)(C)c1ccc(-c2cncc(C(=O)Nc3ccc(C#N)cc3C(=O)O)c2)cc1,32 µg/mL
20,N#Cc1ccc(NC(=O)c2cc3cccc(NC(=O)Cc4ccc(Cl)c(Cl)c4)c3[nH]2)c(C(=O)O)c1,0.125 µg/mL
21,Cc1nc(C)c(S(=O)(=O)Nc2cccc3cc(C(=O)Nc4ccc(C#N)cc4C(=O)O)n(C)c23)s1,0.5 µg/mL
22,Cc1sc(C(=O)Nc2ccc(C#N)cc2C(=O)O)cc1S(=O)(=O)N(CCO)Cc1ccccc1,16 µg/mL
23,O=C(O)c1cc(Br)ccc1NC(=O)c1ncccc1C(=O)c1ccccc1,> 128 µg/mL

row,SMILES,MIC
1,Cc1sc(C(=O)Nc2ccc(C#N)cc2C(=O)O)cc1S(=O)(=O)N(C)CCc1ccccc1,4 µg/mL
2,COc1cccc(-c2cc(C(=O)Nc3ccc(O)cc3C(=O)O)no2)c1,0.25 µg/mL
3,CCCCS(=O)(=O)N(c1ccc2cc(C(=O)Nc3ccc(C#N)cc3C(=O)O)n(C)c2c1)S(=O)(=O)CCCC,2 µg/mL
4,Cc1ccccc1-c1cc(C(=O)Nc2ccc(C#N)cc2C(=O)O)no1,0.25 µg/mL
5,CCCCCCCC(=O)Nc1cccc2cc(C(=O)Nc3ccc(C#N)cc3C(=O)O)[nH]c12,0.125 µg/mL
6,N#Cc1ccc(NC(=O)c2csc(-c3cccnc3)n2)c(C(=O)O)c1,> 128 µg/mL
7,Cc1noc(C)c1S(=O)(=O)Nc1cccc2cc(C(=O)Nc3ccc(C#N)cc3C(=O)O)n(C)c12,0.25 µg/mL
8,O=C(Nc1ccc(Br)cc1C(=O)O)c1cc(CCCC2CCCCC2)on1,4 µg/mL
9,N#Cc1ccc(NC(=O)c2noc3ccc(NS(=O)(=O)c4ccc(F)cc4)cc23)c(C(=O)O)c1,0.125 µg/mL
10,N#Cc1ccc(NC(=O)c2noc3ccc(NS(=O)(=O)Cc4ccccc4)cc23)c(C(=O)O)c1,0.125 µg/mL
11,CCCCCSc1cnc(C(=O)Nc2ccc(Cl)cc2C(=O)O)cn1,0.125 µg/mL
12,Cn1c(C(=O)Nc2ccc(Br)cc2C(=O)O)cc2ccccc21,0.5 µg/mL
13,Cc1c(S(=O)(=O)N(C)c2ccc(Cl)cc2)csc1C(=O)Nc1ccc(Br)cc1C(=O)O,8 µg/mL
14,N#Cc1ccc(NC(=O)c2ccc(SCCCCCO)nn2)c(C(=O)O)c1,0.06 µg/mL
15,O=C(O)c1cc(Br)ccc1NC(=O)c1noc2ccc(S(=O)(=O)N3CCOCC3)cc12,0.5 µg/mL
16,CCCCN(CCCC)CCCNS(=O)(=O)c1cc(C(=O)Nc2ccc(Br)cc2C(=O)O)sc1C,> 128 µg/mL
17,N#Cc1ccc(NC(=O)c2cc3cccc(NC(=O)C45CC6CC(CC(C6)C4)C5)c3[nH]2)c(C(=O)O)c1,16 µg/mL
18,O=C(Nc1ccc(Br)cc1C(=O)O)c1cc(SCc2ccccc2)on1,0.125 µg/mL
19,COc1cccc2[nH]c(C(=O)Nc3ccc(C#N)cc3C(=O)O)cc12,0.25 µg/mL
20,Cn1c(C(=O)Nc2ccc(C#N)cc2C(=O)O)cc2c(-c3ccccc3C(F)(F)F)cc(-c3ccccc3C(F)(F)F)c(NC(=O)Cc3ccccc3)c21,8 µg/mL
21,COCC(=O)Nc1ccc2cc(C(=O)Nc3ccc(C#N)cc3C(=O)O)n(C)c2c1,2 µg/mL
22,O=C(O)c1cc(Cl)ccc1NC(=O)c1cc2ccccc2n1CC1CCCCC1,0.5 µg/mL
23,Cn1c(C(=O)Nc2ccc(C#N)cc2C(=O)O)cc2cccc(NC(=O)Cc3ccc(F)cc3)c21,0.125 µg/mL

row,SMILES,MIC
1,N#Cc1ccc(NC(=O)c2cc3cccc(NC(=O)COCc4ccccc4)c3[nH]2)c(C(=O)O)c1,1 µg/mL
2,CC(=O)c1ccc(N2CCN(S(=O)(=O)c3cc(C(=O)Nc4ccc(C#N)cc4C(=O)O)sc3C)CC2)cc1,16 µg/mL
3,COc1ccc(C(=O)Nc2ccc(C#N)cc2C(=O)O)cn1,8 µg/mL
4,CCCCCn1c(C(=O)Nc2ccc(Cl)cc2C(=O)O)cc2ccccc21,4 µg/mL
5,CCCCCCCSc1cnc(C(=O)Nc2ccc(C#N)cc2C(=O)O)cn1,0.25 µg/mL
6,CCCCCCSc1cnc(C(=O)Nc2ccc(C#N)cc2C(=O)O)cn1,0.125 µg/mL
7,O=C(Nc1ccc(Br)cc1C(=O)O)c1cc(-c2ccccc2Cl)on1,0.125 µg/mL
8,CN(C(=O)Nc1ccc2cc(C(=O)Nc3ccc(C#N)cc3C(=O)O)n(C)c2c1)c1ccccc1,0.5 µg/mL
9,N#Cc1ccc(NC(=O)c2ncc(-c3ccco3)o2)c(C(=O)O)c1,2 µg/mL
10,CCC(C)Sc1cnc(C(=O)Nc2ccc(Cl)cc2C(=O)O)cn1 (stereo not shown),0.25 µg/mL
11,CC(C)N(c1ccc2onc(C(=O)Nc3ccc(C#N)cc3C(=O)O)c2c1)S(C)(=O)=O,0.125 µg/mL
12,Cc1sc(C(=O)Nc2ccc(C#N)cc2C(=O)O)cc1S(=O)(=O)N1CCCC1CN1CCCC1 (stereo not shown),128 µg/mL
13,N#Cc1ccc(NC(=O)c2cc3cccc(NC(=O)Cc4ccc(Cl)cc4Cl)c3[nH]2)c(C(=O)O)c1,0.25 µg/mL
14,COCCOCCCSc1ccc(C(=O)Nc2ccc(Br)cc2C(=O)O)cn1,0.5 µg/mL
15,O=C(Nc1ccc(Br)cc1C(=O)O)c1csc(S(=O)(=O)N2CCN(c3cccc(C(F)(F)F)c3)CC2)c1,16 µg/mL
16,Cn1c(C(=O)Nc2ccc(C#N)cc2C(=O)O)cc2cccc(S(=O)(=O)c3ccccc3)c21,0.125 µg/mL
17,N#Cc1ccc(/C=C/c2cc(-c3ccccc3)on2)c(C(=O)O)c1,64 µg/mL
18,CC1(C)OCC(CCc2cc(C(=O)Nc3ccc(Br)cc3C(=O)O)no2)O1 (stereo not shown),4 µg/mL
19,O=C(Nc1ccc(Br)cc1C(=O)O)c1cc(OCc2ccccc2)ccn1,4 µg/mL
20,CC(C)Cn1c(C(=O)Nc2ccc(Cl)cc2C(=O)O)cc2ccccc21,2 µg/mL
21,N#Cc1ccc(NC(=O)c2cncc(C#CCO)c2)c(C(=O)O)c1,64 µg/mL
22,Cc1sc(C(=O)Nc2ccc(C#N)cc2C(=O)O)cc1S(=O)(=O)N(C)CCC(O)c1ccccc1 (stereo not shown),64 µg/mL
23,O=C(Nc1ccc(Br)cc1C(=O)O)c1csc(S(=O)(=O)NC2CCN(Cc3ccccc3)CC2)c1,64 µg/mL

row,SMILES,MIC
1,Cc1sc(C(=O)Nc2ccc(Br)cc2C(=O)O)cc1S(=O)(=O)NCCc1ccc(N)cc1,32 µg/mL
2,CCCC(=O)Nc1ccc2cc(C(=O)Nc3ccc(C#N)cc3C(=O)O)n(C)c2c1,1 µg/mL
3,N#Cc1ccc(NC(=O)c2cc3ccccc3[nH]2)c(C(=O)O)c1,2 µg/mL
4,Cn1c(C(=O)Nc2ccc(C#N)cc2C(=O)O)cc2cccc(OC[C@H](O)CO)c21,0.5 µg/mL
5,CN(c1ccc(Cl)cc1)S(=O)(=O)c1cc(C(=O)Nc2ccc(Br)cc2C(=O)O)cs1 [drawing 1603],4 µg/mL
6,CCCCCCC(=O)Nc1cccc2cc(C(=O)Nc3ccc(C#N)cc3C(=O)O)[nH]c12,0.5 µg/mL
7,COC(=O)CC(=O)Nc1cccc2cc(C(=O)Nc3ccc(C#N)cc3C(=O)O)[nH]c12,4 µg/mL
8,N#Cc1ccc(NC(=O)c2ccc(N3CCOCC3)nc2)c(C(=O)O)c1,64 µg/mL
9,Cl.Cn1c(C(=O)Nc2ccc(C#N)cc2C(=O)O)cc2cccc(OCC(O)CNCc3cccs3)c21 (stereo not shown),0.5 µg/mL
10,N#Cc1ccc(NC(=O)c2cnc(CCc3ccccc3)cn2)c(C(=O)O)c1,16 µg/mL
11,Cc1c(S(=O)(=O)Nc2ccc(F)c(Cl)c2)csc1C(=O)Nc1ccc(Br)cc1C(=O)O,64 µg/mL
12,Cn1c(C(=O)Nc2ccc(C#N)cc2C(=O)O)cc2cccc(OCC3CCCCC3)c21,0.25 µg/mL
13,O=C(O)c1cc(Br)ccc1NC(=O)c1noc2ccc(S(=O)(=O)Nc3ccccc3)cc12,0.03 µg/mL
14,CC(C)Oc1ccccc1-c1cc(C(=O)Nc2ccc(C#N)cc2C(=O)O)no1,0.125 µg/mL
15,CC(C)CCSc1cnc(C(=O)Nc2ccc(C#N)cc2C(=O)O)cn1,0.125 µg/mL
16,CC(CC(=O)Nc1cccc2cc(C(=O)Nc3ccc(C#N)cc3C(=O)O)[nH]c12)CC(C)(C)C (stereo not shown),0.5 µg/mL
17,CSCCOc1cccc2cc(C(=O)Nc3ccc(C#N)cc3C(=O)O)n(C)c12,0.25 µg/mL
18,N#Cc1ccc(NC(=O)c2ccc(SC3CCCC3)nc2)c(C(=O)O)c1,0.5 µg/mL
19,Cc1ccccc1-c1ccc2onc(C(=O)Nc3ccc(C#N)cc3C(=O)O)c2c1,0.125 µg/mL
20,O=C(O)c1cc(Cl)ccc1NC(=O)c1cc2ccccc2n1CCCc1ccccc1,4 µg/mL
21,N#Cc1ccc(NC(=O)c2cc3cccc(NC(=O)Cc4cccc(Cl)c4)c3[nH]2)c(C(=O)O)c1,0.25 µg/mL
22,N#Cc1ccc(NC(=O)c2cc3cccc(NC(=O)C4CCCCC4)c3[nH]2)c(C(=O)O)c1,2 µg/mL
